Values quoted from earlier work, collected in patent US5177064A, “Targeted drug delivery via phosphonate derivatives” (University of Florida, priority 1990, dated 1993).
≈ marks a conversion by molar mass, not a printed value.

Experiments:
encephalitis [1] = tested on: encephalitis
[2] = human, in vivo
encephalitis [3] = conditions: treatment of encephalitis in vitro and in vivo
HCMV = conditions: in vitro; read-out: IC50 against HCMV
[4] = at 37° C.
[5] = humans
[6] = intravenous, biphasic elimination

Structure (SMILES): Nc1ncnc2c1ncn2[C@@H]1O[C@H](CO)[C@@H](O)[C@@H]1O [Ara-A, 9-β-D-arabinofuranosyladenine]
- log P (octanol/water) (octanol/water): negative

Structure (SMILES): Cc1cn([C@@H]2O[C@H](CO)[C@@H](O)[C@@H]2F)c(=O)[nH]c1=O [FMAU]
- doses producing irreversible neurological damage (encephalitis [1]; in vivo): greater than 32 mg
- therapeutic index (encephalitis [1]; treating encephalitis): greater than 3,000

Structure (SMILES): Cc1cn([C@H]2C[C@H](N=[N+]=[N-])[C@@H](CO)O2)c(=O)[nH]c1=O [AZT, azidothymidine]
- bioavailability [2]: about 60%

Structure (SMILES): Nc1nc(O)c2ncn(COC(CO)CO)c2n1 [DHPG, Dihydroxypropoxymethylgaunine]
- effectiveness relative to acyclovir (encephalitis [3]): at least 100 fold
- IC50 (HCMV): ~2500 nM
- aqueous solubility [4]: 5100 µg/mL (≈ 20 mM)
- drug excreted unchanged by the kidneys [5]: 99%
- oral bioavailability ([5]; based on urinary excretion): 3-4.6%
- α-phase half-life [5, 6]: 0.23 h
- β-phase half-life [5, 6]: 2.53 h

Structure (SMILES): NC(=O)c1ncn([C@@H]2O[C@H](CO)[C@@H](O)[C@H]2O)n1 [ribavirin, 1-β-D-ribofuranosyl-1,2,4-triazole-3-carboxamide]
- log P: 2.06
